“Also recorded” adds a separate entry of the source. Like-named read-outs stand apart in the source and are kept apart here.
Experiments:
[1] = tested on: xenograft models of KRAS G12C-positive lung tumors; set-up: method as in GDC-6036 Investigator's Brochure; settings: nonclinical xenograft models of KRAS G12C-positive lung tumors; ref GDC-6036 Investigator's Brochure; cited from earlier work
[2] = tested on: pERK, pS6, DUSP6, SPRY4 in KRAS G12C-positive cancer cell lines; set-up: method as in GDC-6036 Investigator's Brochure; settings: ref GDC-6036 Investigator's Brochure; cited from earlier work
[3] = Divarasib plasma pharmacokinetics, non-compartmental analysis; format: in vivo, human; settings: divarasib 400 mg QD in combination with cetuximab (250 mg/m^2 QW), n=21; C1D8 or C2D1 AUC0-24 / C1D1 AUC0-24; mean ± s.d.
Procedure: Pharmacokinetic parameters were estimated using non-compartmental analysis of concentration–time data. Plasma samples were evaluated for divarasib using a validated liquid chromatography tandem mass spectrometry assay. […] A stable labeled internal standard was used. Pharmacokinetic non-compartmental analysis was performed with nominal time using Phoenix WinNonlin (Certara USA, version 8.3). Graphical visualization was done using R (version 4.2.0; R Foundation for Statistical Computing). Pharmacokinetic samples at steady state were collected before dose, and at 0.5, 1, 2, 3, 4 and 8 h after dose on cycle 1 day 8 (C1D8) or on cycle 2 day 1 (C2D1).

KRAS G12C [4] = settings: single-agent divarasib; patients with detectable KRAS G12C ctDNA at C1D1; cited from earlier work
[5] = tested on: non-small cell lung cancer; settings: cited from earlier work
CYP3A4 = tested on: CYP3A4; set-up: method as in GDC-6036 Investigator's Brochure; settings: human hepatocyte culture; ref GDC-6036 Investigator's Brochure; cited from earlier work
BCRP = tested on: BCRP; set-up: method as in GDC-6036 Investigator's Brochure; settings: in vitro; ref GDC-6036 Investigator's Brochure; cited from earlier work
[6] = cited from earlier work
mice = tested on: mice; set-up: method as in GDC-6036 Investigator's Brochure; settings: gavage, attributed to chemical irritation by the higher concentration drug formulation, ref GDC-6036 Investigator's Brochure; cited from earlier work
KRAS G12C [7] = tested on: KRAS G12C; set-up: method as in earlier work; settings: in vitro; cited from earlier work
KRAS G12C-positive CRC = settings: single-agent divarasib at 400 mg, patients with CRC; cited from earlier work
[8] = tested on: patients with KRAS G12C-positive CRC
Procedure: Preliminary antitumor activity was determined by the investigator according to RECIST v1.1. […] PFS was defined as the time from first treatment to the first occurrence of disease progression or death from any cause during the study (whichever occurred first).

cynomolgus monkeys = tested on: cynomolgus monkeys; set-up: method as in GDC-6036 Investigator's Brochure; settings: ref GDC-6036 Investigator's Brochure, cited from earlier work
P-gp = tested on: P-gp; set-up: method as in GDC-6036 Investigator's Brochure; settings: in vitro; ref GDC-6036 Investigator's Brochure; cited from earlier work
patients = settings: cited from earlier work
[9] = single-agent divarasib at 400 mg
[10] = divarasib 400 mg QD single agent, multiple doses (C1D8 or C2D1), N 76, mean ± s.d.
[11] = in combination with cetuximab, 29 patients
[12] = AMG 510 all events, n=129, MRTX849 related only, n=17, ref Janne et al. 2019, Hong et al. 2020
[13] = Phase I trial, one patient, ref Hong et al. 2020

C=CC(=O)N1CCN(c2nc(OC[C@@H]3CCCN3C)nc3c(F)c(-c4nc(N)cc(C)c4C(F)(F)F)c(Cl)cc23)[C@@H](C)C1 [divarasib]
single-agent activity on tumor growth [1]: inhibits tumor growth
downstream MAPK pathway components (pERK, pS6) and KRAS target genes (DUSP6, SPRY4) [2]: inhibited
RAUC0-24 [3]: 1.2 ± 0.4 fold
patients with KRAS G12C VAF decline to below 0.5% at C3D1 (KRAS G12C [4]): 45.7%
confirmed ORR [5, 9]: 56.4%
median PFS [5, 9]: 13.1 months
CYP3A4 mRNA induction (CYP3A4): induce messenger RNA (mRNA)
CYP3A4 protein levels induction (CYP3A4): not protein levels
BCRP transporter inhibition (BCRP): inhibit
AUC0-24 [6, 10]: 9130 ± 3160 ng·h/mL
Cmax [6, 10]: 657 ± 185 ng/mL
tmax ([6]; divarasib 400 mg QD single agent, multiple doses (C1D8 or C2D1), N 76, median (range)): 2.0 (0.5-8.0) hr
RAUC0-24 ([6]; divarasib 400 mg QD single agent, n=63, mean ± s.d.): 1.4 ± 0.4 fold
mean half-life ([6]; single dose of divarasib 400 mg as a single agent): 17.6 ± 2.7 h
microscopic findings (mice): laryngeal necrosis
potency compared to sotorasib and adagrasib (KRAS G12C [7]): 5 to 20 times
confirmed ORR (KRAS G12C-positive CRC): 35.9%
median PFS (KRAS G12C-positive CRC): 6.9 months
diarrhea leading to divarasib dose reduction, patients ([8]; all grade 3): 10.3%
vomiting leading to divarasib dose reduction, patients ([8]; grade 1): 3.4%
TRAEs leading to divarasib dose interruptions, patients [8, 11]: 24.1%
TRAEs leading to divarasib dose modifications (interruption, reduction or withdrawal), patients [8, 11]: 34.5%
TRAEs leading to divarasib treatment withdrawals [8, 11]: no divarasib treatment withdrawals; also recorded: No patients withdrew
clinical signs (cynomolgus monkeys; 4-week toxicology studies in cynomolgus monkeys): gastrointestinal intolerance with retching and vomiting
hepatic transaminases (cynomolgus monkeys; cynomolgus monkeys): minimal to mild transaminase elevation
P-gp transporter inhibition (P-gp): inhibit

C=CC(=O)N1CCN(c2nc(=O)n(-c3c(C)ccnc3C(C)C)c3nc(-c4c(O)cccc4F)c(F)cc23)[C@@H](C)C1 [sotorasib]
ORR ([5]; phase 2 trial): 37%
ORR ([5]; phase 3 trial): 28%
all grade adverse events: diarrhea (patients; [12]): 29.5%
all grade adverse events: nausea (patients; [12]): 20.9%
all grade adverse events: vomiting (patients; [12]): 17.8%
Grade 3 treatment-related increased AST, patients (patients; Phase I trial, 3 out of 129, ref Hong et al. 2020): 2.3%
Grade 3 treatment-related increased ALT, patients (patients; Phase I trial, 6 out of 129, ref Hong et al. 2020): 4.7%
any grade increased ALT, patients (patients; Phase I trial, 15 out of 129, ref Hong et al. 2020): 11.6%
any grade increased AST, patients (patients; Phase I trial, 17 out of 129, ref Hong et al. 2020): 13.2%
Grade 4 treatment-related elevation of ALT, patients (patients; [13]): 0.8%
discontinued treatment because of Grade 3 treatment-related increase in ALT and AST levels, patients (patients; [13]): 0.8%

From paper PMC10803265 (Nature Medicine, 2023)
